Measurements as given in patent publication US8551999B2, “Heterocyclic compound and pharmaceutical composition thereof” (Otsuka Pharmaceutical Co., Ltd., priority 2007, dated 2013).
Structures can show the parent of a compound that is named as a salt.

Experiments:
[1] = test system: LI90 cells, a human hepatic stellate cell line; assay: Inhibitory effect on collagen synthesis (in vitro); type: cell-based; conditions: in the presence of recombinant human TGF-β1, 3H-proline labelled collagen in supernatant
Experimental: Inhibitory Effect on Collagen Synthesis (In Vitro)
LI90 cells, a human hepatic stellate cell line, were suspended in DMEM (Dulbecco's modified eagle medium) supplemented with 10% inactivated FBS (fetal bovine serum), seeded on a 12-well plate and cultured in a CO2 incubator (preset temperature: 37° C., preset CO2 concentration: 5%). After being cultured for 24 hours, the cells were washed with D-PBS (Dulbecco's phosphate buffered saline), placed in MEM (Eagle's minimum essential medium) supplemented with 0.1% inactivated FBS and then cultured in a CO2 incubator. After being cultured for 3 days, the cells were again washed with D-PBS, placed in MEM (Eagle's minimum essential medium) supplemented with 0.1% inactivated FBS and treated with or without a test compound in the presence of […] recombinant human TGF-β1 (transforming growth factor-β1) in a CO2 incubator for 16 hours. After the incubation, the cells were washed with D-PBS and the medium was replaced with MEM containing 0.25 mM ascorbate. A radio-labeled compound, ^3H-proline, was then added to the culture medium to radio-label the collagen proteins produced. After being cultured for 24 hours, the supernatant was collected and the collagen proteins were extracted from the supernatant as acid-soluble fractions. The amount of collagen produced was determined by measuring the radioactivity contained in the fractions. A concentration of test compound that produced 50% inhibition [IC50 value (nM)] on collagen synthesis was calculated by comparing the radioactivity count in a supernatant of test-compound-treated cells with that of untreated cells (control).

STAT3 = assay: Inhibitory effect on IL-6-induced STAT3 phosphorylation in human myeloma cells (in vitro); type: cell-based; conditions: U266B1 human myeloma cells, IL-6 1 ng/mL, pSTAT3 (Y705) by flow cytometry
Experimental: The inhibitory effect of the test compound on phosphorylation of STAT3 (signal transducer and activator of transcription-3) in human myeloma cells ([…]) induced by interleukin-6 (IL-6) was examined using the modified method of Tochizawa S. et al. (J Immunol Methods. 2006 Jun. 30; 313(1-2): 29-37). In the study, U266B1 cells were seeded in an RPMI 1640 medium containing 10% fetal bovine serum (FBS) in a 12-well plate and incubated at 37° C. for 2 hours in the presence of carbon dioxide. After incubation, IL-6 was added to yield the concentration of 1 ng/mL and the cells were incubated at 37° C. for 15 minutes in the presence of 5% carbon dioxide. After fixation of the cells by the addition of a buffer containing formaldehyde (Lyse/Fix Buffer, BD Biosciences) at room temperature for 10 minutes, the suspension was centrifuged to remove the supernatant and the cells were treated with ice-cold methanol for 10 minutes to improve the permeability of the cell membrane. The cells were centrifuged to remove methanol and washed twice with Dulbecco's phosphate buffered saline (D-PBS) containing 2% fetal bovine serum (FBS). A fluorescence-labeled anti-phosphorylated STAT3 (pSTAT3) antibody (Alexa Fluor 488-labeled anti-pSTAT3 (Y705) antibody, BD Biosciences) was added for staining in an ice bath for 30 minutes.
The cells were washed once with 2% FBS-containing D-PBS and suspended in 2% FBS-containing D-PBS, and the fluorescence intensity was determined using a flow cytometer (FACS Sort, BD Biosciences). The ratio of fluorescence intensity in the test group to the control group (T/C) was determined from the difference in the geometric mean of pSTAT3 fluorescence intensity between the test compound group of each concentration and the non-stimulated control group according to the following equation by defining the difference in the geometric mean of pSTAT3 fluorescence intensity between the IL-6 induced control and the non-stimulated control as 100%. T/C(%)=([…] of pSTAT3 fluorescence intensity in the cells treated with the test compound—geometric mean of pSTAT3 fluorescence intensity in non-stimulated control)/(geometric mean of fluorescence intensity of IL-6-induced pSTAT3 in the control−geometric mean of pSTAT3 fluorescence intensity in non-stimulated control)×100.
The concentration of the test compound inhibiting phosphorylation of STATS at 50% (IC50; concentration of the test compound corresponding to 50% T/C(%)) was determined using T/C(%) values at the respective concentrations and defined as the index for the inhibitory activity.

[2] = test system: human hepatic cancer cells (HuH-7); assay: Antiproliferative effect on cancer cells (in vitro), sulforhodamine B method, HuH-7; type: cell-based; conditions: HuH-7 cells, 5 days incubation with test compound
Experimental: (§1) Growth inhibition of human hepatic cancer cells (HuH-7) was determined by the sulforhodamine B method based on the method of Skehan P. et al. (J Natl Cancer Inst. 1990 Jul. 4; 82(13): 1107-12). In the study, HuH-7 cells were seeded on DMEM medium containing 10% fetal bovine serum in a 96-well microplate. After 24-hour incubation at 37° C. in the presence of 5% carbon dioxide, the test compound was added and the cells were incubated for another 5 days. After incubation, a trichloroacetic acid solution was added to yield the final concentration of 10% and the cells were left to stand at 4° C. for 1 hour to fix. Then, the cells were washed with water to remove the medium and trichloroacetic acid and dried in the air. The dried cells were stored at 4° C. until they were stained with sulforhodamine B. To each well, 1% acetic acid solution containing 0.4% sulforhodamine B was added and left to stand for 20 to 30 minutes at room temperature. After discarding the supernatant, each well was washed with 1% acetic acid solution, and 10 mM Tris ([…]) solution was added while stirring to elute the dye taken into the cells. Then, the optical density was determined at the measurement wavelength of 492 nm and the reference wavelength of 690 nm, and the difference was calculated. The cell growth activity in each well was defined as the value determined by subtracting the OD in the control well not containing cells (the difference in absorbance between 492 nm and 690 nm) from that in the test well.
(§2) The 50% inhibitory concentration (IC50 (nM)) of the test compound was determined by comparing the cell growth activity in the well containing the test compound with that of the control not containing the test compound.

[3] = test system: human pancreatic cancer cells (HPAC); assay: Antiproliferative effect on cancer cells (in vitro), sulforhodamine B method, HPAC; type: cell-based; conditions: 5 days incubation with test compound
Experimental: as §1, §2
The growth inhibition on human pancreatic cancer cells (HPAC) was also determined by the above method using HPAC instead of HuH-7 and RPMI 1640 medium containing 10% fetal bovine serum instead of the DMEM medium containing 10% fetal bovine serum.

[4] = test system: human chronic myelocytic leukemia cells (KU812); assay: Antiproliferative effect on cancer cells (in vitro), WST-8 assay, KU812; type: cell-based; conditions: 5 days incubation with test compound
Experimental: The growth inhibition on human chronic myelocytic leukemia cells (KU812) was determined by a WST-8 assay according to the method of Singh A K, et al. (Cancer Lett. 1996 Oct. 1; 107(1): 109-15.). In this method, KU812 cells were seeded in RPMI 1640 medium containing 10% fetal bovine serum in a 96-well microplate and incubated at 37° C. for 24 hours in the presence of 5% carbon dioxide. Then, the test compound was added and the cells were incubated for another 5 days. After incubation, 15 μL of 5 mM WST-8 (2-(2-methoxy-4-nitrophenyl)-3-(4-nitrophenyl)-5-(2,4-disulfenyl)-2H-tetrazolium, monosodium salt) was added and the cells were incubated for 2 hours. After the 2-hour incubation, 15 μL of 1% SDS (sodium dodecyl sulfate) was added and the optical density was determined at the measurement wavelength of 450 nm and the reference wavelength of 630 nm, and the difference was calculated. The cell growth activity in each well was defined as the value determined by subtracting the OD in the control well not containing cells (the difference in absorbance between 492 nm and 690 nm) from that in the test well.
as §2

[5] = test system: Human hepatic cancer cells (HuH-7); assay: Antitumor effect on hepatic cancer cells, HuH-7 (in vivo); conditions: SCID mice bearing HuH-7 tumor, 10 mg/kg/day orally, once daily, 9 consecutive days; ratio of relative tumor volume treatment/control
Experimental: Human hepatic cancer cells (HuH-7) were transplanted in SCID mice (6 females/group) and the inhibitory effect of the invention on their growth was examined. In the study, 0.2 mL of a cell suspension adjusted to contain 2.5×10^7 cells/mL was injected subcutaneously in the right axilla to prepare tumor bearing mice. When the tumor diameter became 5 mm or more, the animals were allocated to groups based on the tumor volume. The test compound was administered orally as a suspension in 5% gum arabic, once daily, for 9 consecutive days. The control group received 5% gum arabic. Tumor volumes were measured on the following day of the last administration. The relative tumor volume was determined by calculating the ratio of the tumor volume on the following day of the last administration to that at group allocation. The ratio of the relative tumor volume in the treatment group to that in the control group (T/C %) was calculated as the index for the effect. Relative tumor volume=Tumor volume on the following day of the last administration/Tumor volume at group allocation. T/C %=(Mean relative tumor volume in the treatment group/Mean relative tumor volume in the control group)×100.

Row | SMILES | melting point | IC50 [1] | IC50 (STAT3) | IC50 ([2]; Homo sapiens, 120 h) | IC50 ([3]; Homo sapiens, 120 h) | IC50 ([4]; Homo sapiens, 120 h) | IC50 [2] | IC50 [3] | T/C % [5] | IC50 [4]
1 | Br.CN(C(=O)c1ccc(C(F)(F)F)cc1)c1ccc(Oc2ccc3cc(C(=O)N4CCN(Cc5ccc(OCC(F)(F)F)cc5)CC4)n(C)c3c2)nc1 [Example 436, N-Methyl-N-[6-(1-methyl-2-{4-[4-(2,2,2-trifluoroethoxy)benzyl]-piperazine-1-carbonyl}-1H-indol-6-yloxy)pyridin-3-yl]-4-tri-fluoromethylbenzamide hydrobromide] | 225 to 226.4 °C | < 10 nM | < 10 nM | < 10 nM | < 70 nM | < 2 nM |  |  |  | 
2 | Br.CN(C(=O)c1ccc(OC(F)(F)F)cc1)c1ccc(Oc2ccc3cc(C(=O)N4CCN(Cc5ccc(OC(F)F)cc5)CC4)n(C)c3c2)nc1 [Example 473, N-(6-{2-[4-(4-Difluoromethoxybenzyl)piperazine-1-carbonyl]-1-methyl-1H-indol-6-yloxy}pyridin-3-yl)-N-methyl-4-trifluoro-methoxybenzamide hydrobromide] |  | < 10 nM |  |  |  |  | < 10 nM | < 70 nM | <50% | < 2 nM
3 | Br.CN(C(=O)c1ccc(C(F)(F)F)cc1)c1ccc(Oc2ccc3cc(C(=O)N4CCN(Cc5ccc(OC(CF)CF)cc5)CC4)n(C)c3c2)nc1 [Example 445, N-[6-(2-{4-[4-(2-Fluoro-1-fluoromethylethoxy)benzyl]piperazine-1-carbonyl}-1-methyl-1H-indol-6-yloxy)pyridin-3-yl]-N-methyl-4-tri-fluoromethylbenzamide hydrobromide] | 230.8 to 231.4 °C |  | < 10 nM |  |  |  |  |  | <50% | 
4 | Cc1cc(C(F)(F)F)ccc1C(=O)Nc1ccc(Oc2ccc3cc(C(=O)N4CCN(Cc5ccc(OC(CF)CF)cc5)CC4)n(C)c3c2)nc1.Cl [Example 493, N-[6-(2-{4-[4-(2-Fluoro-1-fluoromethylethoxy)benzyl]piperazine-1-carbonyl}-1-methyl-1H-indol-6-yloxy)pyridin-3-yl]-2-methyl-4-tri-fluoromethylbenzamide hydrochloride] | 192.5 to 195.4 °C |  | < 10 nM |  |  |  |  |  | <50% | 
5 | CN(C(=O)c1ccc(C(F)(F)F)cc1)c1ccc(Oc2ccc3c(c2)cc(C(=O)N2CCN(Cc4ccc(OC(F)F)cc4)CC2)n3C)nc1.O=C(O)/C=C\C(=O)O [Example 401, N-(6-{2-[4-(4-Difluoromethoxybenzyl)piperazine-1-carbonyl]-1-methyl-1H-indol-5-yloxy}pyridin-3-yl)-N-methyl-4-trifluoromethyl-benzamide maleate] | 146 to 147 °C | < 10 nM | < 10 nM | < 10 nM | < 70 nM | < 2 nM |  |  | <50% | 
6 | CC(C)Oc1ccc(CN2CCN(C(=O)c3cc4ccc(Oc5ncc(N(C)C(=O)c6ccc(C(F)(F)F)cc6)cn5)cc4n3C)CC2)cc1.Cl [Example 521, N-(2-{2-[4-(4-Isopropoxybenzyl)piperazine-1-carbonyl]-1-methyl-1H-indol-6-yloxy}pyrimidin-5-yl)-N-methyl-4-trifluoromethyl-benzamide hydrochloride] |  |  |  | < 10 nM | < 70 nM | < 2 nM |  |  | <50% | 
7 | COc1ccc(CN2CCN(C(=O)c3cc4cc(Oc5ccc(N(C)C(=O)c6ccc(C(F)(F)F)cc6)cn5)ccc4n3C)CC2)cc1 [Example 338, N-(6-{2-[4-(4-Methoxybenzyl)piperazine-1-carbonyl]-1-methyl-1H-indol-5-yloxy}pyridin-3-yl)-N-methyl-4-trifluoromethylbenzamide maleate] |  |  | < 10 nM | < 10 nM | < 70 nM | < 2 nM |  |  |  | 
